According to patent publication US11696913B2, “Prolonged ectoparasite-controlling agent for animal” (MITSUI CHEMICALS AGRO, INC., priority 2017, dated 2023):

Assays:
Amblyomma americanum = test: In vitro contact test with hard ticks (Amblyomma americanum nymphs); settings: read-out: acaricidal activity; for pest or weed control at 1 µg/cm2, 1 µg/cm2: dose 1 μg/cm^2, 48 h; for pest or weed control at 0.2 µg/cm2, 0.2 µg/cm2: dose 0.2 μg/cm^2, 48 h
Procedure, shortened: (§1)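 Adult R. sanguineus, I. ricinus, D. variabilis or A. americanum nymphs exposed in glass vials coated with compound from acetone (900 ppm gives 5 μg/cm^2). Held 48 h at room temperature (R. sanguineus) or 21° C., 85% rel. hum.; then heated at 45-50° C. ≤5 min, motionless or uncoordinated ticks scored dead/moribund.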

Dermacentor variabilis = test: In vitro contact test with adult hard ticks (Dermacentor variabilis); settings: read-out: acaricidal activity; for pest or weed control at 0.2 µg/cm2, 0.2 µg/cm2: dose 0.2 μg/cm^2, 48 h; for pest or weed control at 1 µg/cm2, 1 µg/cm2: dose 1 μg/cm^2, 48 h
Procedure, shortened: as §1

Rhipicephalus sanguineus = test: In vitro contact test with adult hard ticks (Rhipicephalus sanguineus); settings: read-out: acaricidal activity; for pest or weed control at 0.2 µg/cm2, 0.2 µg/cm2: dose 0.2 μg/cm^2, 48 h; for pest or weed control at 1 µg/cm2, 1 µg/cm2: dose 1 μg/cm^2, 48 h
Procedure, shortened: as §1

[1] = test system: Rhipicephalus (Boophilus) microplus; test: In vitro injection test with Rhipicephalus (Boophilus) microplus (BOOPMI Inj); settings: 168 h, laid fertile eggs after 7 days, read-out: acaricidal activity; for pest or weed control at 0.00016 mg: dose 0.16 μg/animal injected; for pest or weed control at 0.0008 mg: dose 0.8 μg/animal injected; for pest or weed control at 32 ng: dose 0.032 μg/animal injected
Procedure, shortened: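 Test substance in DMSO; 1 μl injected into abdomen of each of 5 engorged adult female ticks, then held at 28° C., 85% rel. hum. Activity scored after 7 days from laying of fertile eggs: 100% = no eggs or all infertile, 0% = all eggs fertile.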

Ctenocephalides felis [2] = test: Ctenocephalides felis in-vitro feeding test with fleas (CTECFE oral); settings: 48 hours, read-out: insecticidal feeding activity; for pest or weed control at 0.8 ppm: dose 0.8 ppm in citrated cattle blood; for pest or weed control at 4 ppm: dose 4 ppm in citrated cattle blood; for pest or weed control at 0.16 ppm: dose 0.16 ppm in citrated cattle blood; for pest or weed control at 0.032 ppm: dose 0.032 ppm in citrated cattle blood
Procedure, shortened: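 About 20 unfed adult cat fleas fed through parafilm on citrated cattle blood containing test substance (DMSO solution diluted in blood), held at about 37° C. Kill rate scored after 48 hours, 100% meaning all fleas dead.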

Spodoptera litura = test: Insecticidal testing against common cutworm; type: in vivo; settings: foliar, 144 h, concentration 100 ppm, cabbage leaf dip, second-stage larvae, after 6 days, read-out: pesticidal rate
Source text: Insecticidal Testing Against Common Cutworm (Spodoptera litura)

Plutella xylostella = test: Insecticidal testing against diamondback moth; type: in vivo; settings: foliar, 144 h, concentration 100 ppm, cabbage leaf dip, third-stage larvae, after 6 days, read-out: pesticidal rate
Source text: Insecticidal Testing Against Diamondback Moth (Plutella xylostella)

Laodelphax striatellus = test: Insecticidal testing against small brown planthopper; type: in vivo; settings: 144 h, concentration 100 ppm, sprayed rice seedlings, after 6 days, read-out: pesticidal rate
Procedure: Insecticidal Testing Against Small Brown Planthopper (Laodelphax striatellus)
An additional test was carried out with 10 small brown planthoppers by preparing an acetone solution of the testing compound diluted to a predetermined concentration, spraying the solution onto rice seedlings and air drying the rice seedlings. The medicament was all used as received. The rice seedlings were placed in a constant-temperature room at 25° C., and the survival rate was investigated after 6 days. The test was carried out by means of one group of 10 pests.

Ctenocephalides felis [3] = test: In vitro contact test with fleas; settings: read-out: insecticidal activity; for pest or weed control at 0.04 µg/cm2, 0.04 µg/cm2: dose 0.04 μg/cm^2, dead or moribund fleas after 48 h; for pest or weed control at 0.2 µg/cm2, 0.2 µg/cm2: dose 0.2 μg/cm^2, dead or moribund fleas after 48 h; for pest or weed control at 1 µg/cm2, 1 µg/cm2: dose 1 μg/cm^2, dead or moribund fleas after 48 h
Procedure, shortened: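 Adult male and female cat fleas (5-10 per tube) placed in glass tubes coated with compound from acetone solution (900 ppm gives 5 μg/cm^2), kept at room temperature and ambient humidity. After 48 h, motionless or uncoordinated fleas scored dead or moribund; activity expressed as % dead or moribund.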

| SMILES | pest or weed control at 1 µg/cm2, 1 µg/cm2 (Amblyomma americanum) | pest or weed control at 0.2 µg/cm2, 0.2 µg/cm2 (Dermacentor variabilis) | pest or weed control at 1 µg/cm2, 1 µg/cm2 (Dermacentor variabilis) | pest or weed control at 0.2 µg/cm2, 0.2 µg/cm2 (Rhipicephalus sanguineus) | pest or weed control at 1 µg/cm2, 1 µg/cm2 (Rhipicephalus sanguineus) | pest or weed control at 0.00016 mg [1] | pest or weed control at 0.0008 mg [1] | pest or weed control at 0.8 ppm (Ctenocephalides felis [2]) | pest or weed control at 4 ppm (Ctenocephalides felis [2]) | pest or weed control at 100 ppm (Spodoptera litura) | pest or weed control at 100 ppm (Plutella xylostella) | pest or weed control at 100 ppm (Laodelphax striatellus) | pest or weed control at 0.04 µg/cm2, 0.04 µg/cm2 (Ctenocephalides felis [3]) | pest or weed control at 0.2 µg/cm2, 0.2 µg/cm2 (Ctenocephalides felis [3]) | pest or weed control at 1 µg/cm2, 1 µg/cm2 (Ctenocephalides felis [3]) | pest or weed control at 0.2 µg/cm2, 0.2 µg/cm2 (Amblyomma americanum) | pest or weed control at 0.16 ppm (Ctenocephalides felis [2]) | pest or weed control at 32 ng [1] | pest or weed control at 0.032 ppm (Ctenocephalides felis [2]) | other results |
| --- | --- | --- | --- | --- | --- | --- | --- | --- | --- | --- | --- | --- | --- | --- | --- | --- | --- | --- | --- | --- |
| O=C(Nc1cccc(C(=O)Nc2c(I)cc(C(F)(C(F)(F)F)C(F)(F)C(F)(F)F)cc2C(F)(F)F)c1F)c1ccc(Cl)c(Cl)c1 (centres unmarked) [Compound 76] | 90% | 90% | 90% | 90% | 90% | 100% | 100% | 95% | 95% | ≥ 70% | ≥ 70% | ≥ 70% | – | – | – | – | – | – | – | pest or weed control at 0.04 µg/cm2, 0.04 µg/cm2 (Rhipicephalus sanguineus; dose 0.04 μg/cm^2, 48 h): 90% |
| CN(C(=O)c1ccc(F)c(F)c1)c1cccc(C(=O)Nc2c(Br)cc(C(F)(C(F)(F)F)C(F)(F)F)cc2OC(F)(F)F)c1F [Compound 100] | 90% | 90% | 90% | – | 90% | 100% | 100% | 95% | 95% | ≥ 70% | ≥ 70% | ≥ 70% | 95% | 95% | 95% | 90% | 95% | – | – | – |
| CN(C(=O)c1ccc(F)cc1F)c1cccc(C(=O)Nc2c(I)cc(C(F)(C(F)(F)F)C(F)(F)F)cc2C(F)(F)F)c1F [Compound 56] | 90% | 90% | 90% | – | – | 100% | 100% | 95% | 95% | ≥ 70% | ≥ 70% | ≥ 70% | 95% | 95% | 95% | 90% | 95% | 100% | – | pest or weed control at 0.04 µg/cm2, 0.04 µg/cm2 (Amblyomma americanum; dose 0.04 μg/cm^2, 48 h): 90% |
| CN(C(=O)c1ccc(Cl)cc1)c1cccc(C(=O)Nc2c(I)cc(C(F)(C(F)(F)F)C(F)(F)F)cc2C(F)(F)F)c1F [Compound 60] | 90% | – | 90% | 90% | 90% | 100% | 100% | 95% | 95% | ≥ 70% | ≥ 70% | ≥ 70% | – | 95% | 95% | 90% | 95% | 100% | – | – |
| CN(C(=O)c1ccc(C(F)(F)F)nc1)c1cccc(C(=O)Nc2c(I)cc(C(F)(C(F)(F)F)C(F)(F)F)cc2OC(F)(F)F)c1F [Compound 117, N-(2-fluoro-3-((2-iodo-4-(perfluoropropan-2-yl)-6-(trifluoromethoxy)phenyl)carbamoyl)phenyl)-N-methyl-6-(trifluoromethyl)nicotinamide] | 90% | – | – | 90% | 90% | 100% | 100% | 95% | 95% | ≥ 70% | ≥ 70% | ≥ 70% | – | 95% | 95% | – | 95% | 100% | 95% | – |
| CN(C(=O)c1ccc(F)cc1)c1cccc(C(=O)Nc2c(Br)cc(C(F)(C(F)(F)F)C(F)(F)C(F)(F)F)cc2OC(F)(F)F)c1F (centres unmarked) [Compound 94] | 90% | – | 90% | 90% | 90% | 100% | 100% | 95% | 95% | ≥ 70% | ≥ 70% | ≥ 70% | – | – | – | 90% | 95% | 100% | 95% | pest or weed control at 6.4 ng ([1]; dose 0.0064 μg/animal injected): 100% |
| CN(C(=O)c1ccc(C(F)F)nc1)c1cccc(C(=O)Nc2c(I)cc(C(F)(C(F)(F)F)C(F)(F)F)cc2C(F)(F)F)c1F [Compound 87] | 90% | 90% | 90% | – | – | 100% | 100% | 95% | 95% | ≥ 70% | ≥ 70% | ≥ 70% | 95% | 95% | 95% | 90% | 95% | 100% | 95% | – |
